Source: the supplement of paper PMC10307832

How the values were obtained:
Assay in all cases: relative viability (nuclei count vs DMSO), 5 days (fraction); higher = more cells survive
[1] = compound: CC[C@H](Nc1ncnc2[nH]cnc12)c1nc2cccc(F)c2c(=O)n1-c1ccccc1 [Idelalisib] + CC(=O)c1c(C)c2cnc(Nc3ccc(N4CCNCC4)cn3)nc2n(C2CCCC2)c1=O [Palbociclib] (partner 0.5 µM)
Summary of the method: (§1)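 Relative viability is defined as nuclei in treated wells over nuclei in vehicle wells. Duplicate plates were run and medians reported. Lung cancer cell lines in 1536-well plates were dosed by pin tool one day after seeding, with one drug or with a fixed anchor-drug dose plus five library-drug doses (not always all listed) in √10 steps, and nuclei were counted after 5 days.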

[2] = compound: Nc1nc2[nH]cc(CCc3ccc(C(=O)N[C@@H](CCC(=O)O)C(=O)O)cc3)c2c(=O)[nH]1 [Pemetrexed] + C[C@]1(O)C[C@@H](c2nc(-c3ccc4ccc(-c5ccccc5)nc4c3)c3c(N)nccn32)C1 [Linsitinib] (partner 1 µM)
Summary of the method: as §1

[3] = compound: Nc1nc2[nH]cc(CCc3ccc(C(=O)N[C@@H](CCC(=O)O)C(=O)O)cc3)c2c(=O)[nH]1 [Pemetrexed] + CC(C)C[C@H](NC(=O)[C@H](Cc1ccccc1)NC(=O)c1cnccn1)B(O)O [Bortezomib] (partner 0.002 µM)
Summary of the method: as §1

[4] = compound: CC[C@H](Nc1ncnc2[nH]cnc12)c1nc2cccc(F)c2c(=O)n1-c1ccccc1 [Idelalisib]
Summary of the method: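 Lung cancer cell lines in 1536-well plates were exposed by pinning to five library-drug doses (not always all listed) √10 apart, following an overnight hold at 37 °C. MetaXpress counted Hoechst-stained nuclei from 4× images taken after 5 days without medium change. Viability is the median ratio of treated-well to vehicle-well nuclei across plates. Plates required control CV below 25% and at least one doubling.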

Cell Line | relative viability ([1]; first compound 0.04 µM) | relative viability ([1]; first compound 0.1265 µM) | relative viability ([1]; first compound 0.4 µM) | relative viability ([1]; first compound 1.265 µM) | relative viability ([1]; first compound 4 µM) | relative viability ([2]; first compound 0.002 µM) | relative viability ([2]; first compound 0.006325 µM) | relative viability ([2]; first compound 0.02 µM) | relative viability ([2]; first compound 0.06325 µM) | relative viability ([2]; first compound 0.2 µM) | relative viability ([3]; first compound 0.002 µM) | relative viability ([3]; first compound 0.006325 µM) | relative viability ([3]; first compound 0.02 µM) | relative viability ([3]; first compound 0.06325 µM) | relative viability ([3]; first compound 0.2 µM) | relative viability ([4]; 0.04 µM) | relative viability ([4]; 0.1265 µM) | relative viability ([4]; 0.4 µM) | relative viability ([4]; 1.265 µM) | relative viability ([4]; 4 µM)
NCI-H1915 | 0.603 | 0.482 | 0.5 | 0.577 | 0.495 | 1.11 | 1.08 | 1.13 | 1.11 | 1.07 | 0.937 | 1.02 | 1.04 | 0.965 | 0.943 | 1.08 | 0.999 | 0.948 | 1.11 | 0.984
NCI-H647 | 0.393 | 0.319 | 0.25 | 0.242 | 0.219 | – | 0.886 | 1.29 | 1.08 | 0.332 | – | 1.07 | 1.35 | 0.703 | 0.295 | 1.01 | 1.08 | 0.719 | 0.847 | 0.702
NCI-H322M | 0.495 | 0.488 | 0.424 | 0.435 | 0.508 | 0.967 | 0.778 | 1.06 | 0.938 | 0.809 | 1.32 | 1.06 | 1.22 | 1.29 | 1.19 | 1.08 | 1.03 | 0.808 | 0.849 | 0.873
BEN | 0.532 | 0.438 | 0.452 | 0.509 | 0.413 | 0.855 | 0.84 | 0.897 | 0.868 | 0.731 | 0.838 | 0.847 | 1.01 | 0.855 | 0.688 | 1.05 | 0.883 | 0.975 | 0.968 | 0.875
NCI-H2009 | 0.259 | 0.224 | 0.176 | 0.202 | 0.13 | 0.979 | 1.1 | 1.3 | 1.17 | 1.11 | 0.911 | 0.954 | 1.15 | 0.974 | 1 | 0.998 | 1.02 | 0.974 | 1.06 | 1.04
LC-2-ad | 0.454 | 0.518 | 0.513 | 0.503 | 0.49 | 0.811 | 0.83 | 0.819 | 0.24 | 0.188 | 0.981 | 1.01 | 1.02 | 0.215 | 0.148 | 1.05 | 1 | 0.962 | 1.12 | 0.93
NCI-H1437 | 0.334 | 0.413 | 0.318 | 0.361 | 0.325 | 0.898 | 0.965 | 0.967 | 0.49 | 0.252 | 0.31 | 0.478 | 0.514 | 0.313 | 0.26 | 1.01 | 0.995 | 0.965 | 1.12 | 1.05
NCI-H3122 | 0.172 | 0.195 | 0.185 | 0.214 | 0.203 | 1.01 | 1 | 0.949 | 1.01 | 0.646 | 1.02 | 1.02 | 0.899 | 0.99 | 0.877 | 1.03 | 0.989 | 1 | 0.977 | 1.03
NCI-H727 | 0.7 | 0.566 | 0.648 | 0.786 | 0.619 | 0.154 | 0.272 | 0.218 | 0.332 | 0.264 | 0.807 | 0.892 | 0.74 | 0.897 | 0.742 | 1.07 | 1.16 | 0.715 | 0.987 | 0.887
NCI-H1734 | 0.38 | 0.397 | 0.301 | 0.303 | 0.31 | 0.909 | 0.818 | 0.971 | 0.861 | 0.718 | 0.911 | 1.01 | 0.929 | 0.944 | 0.705 | 1.15 | 1.04 | 0.833 | 0.959 | 0.938
HCC-15 | 0.815 | 0.73 | 0.633 | 0.832 | 0.598 | 0.857 | 0.773 | 0.922 | 0.753 | 0.518 | 0.916 | 0.995 | 1.12 | 1.02 | 0.562 | 1.12 | 1.04 | 0.914 | 1.13 | 1.02
NCI-H2405 | 0.539 | 0.484 | 0.494 | 0.512 | 0.486 | 1.01 | 0.913 | 1.03 | 0.894 | 0.975 | 0.983 | 0.974 | 1.05 | 0.986 | 0.96 | 1.06 | 0.985 | 0.886 | 1 | 0.956
NCI-H1993 | 0.642 | 0.743 | 0.49 | 0.523 | 0.491 | 0.824 | 0.697 | 0.815 | 0.698 | 0.692 | 1.04 | 1.08 | 1.22 | 0.99 | 0.695 | 1.1 | 1.12 | 0.804 | 0.917 | 0.7
NCI-H460 | 0.145 | 0.286 | 0.175 | 0.121 | 0.103 | 0.75 | 0.697 | 0.782 | 0.166 | 0.0543 | 1.06 | 1 | 1.16 | 0.177 | 0.0656 | 0.996 | 1.01 | 1.01 | 1.02 | 1
NCI-H1651 | 0.518 | 0.524 | 0.489 | 0.522 | 0.442 | 0.995 | 0.977 | 0.987 | 0.903 | 0.895 | 0.992 | 0.919 | 0.945 | 0.892 | 0.911 | 1.01 | 1.01 | 0.885 | 0.965 | 0.938
NCI-H1975 | 0.586 | 0.653 | 0.429 | 0.583 | 0.406 | – | 0.904 | 1.06 | 0.793 | 0.526 | – | 0.427 | 0.386 | 0.309 | 0.213 | 1.02 | 1.04 | 0.864 | 0.921 | 0.737
